Reference: patent US20080076824A1, “Compounds That Inhibit Replication Of Human Immunodeficiency Virus” (priority 2004, published 2008)
In brackets after ≈: the same amount, converted by molar mass.

How the values were obtained:
Punta Toro virus = settings: Vero; reduces virus-induced cytopathogenicity by 50%
Coxsackie virus B4 [1] = test: Antiviral activity in HeLa cell cultures, Coxsackie virus B4; assay type: cell-based; settings: reduces virus-induced cytopathogenicity by 50%
Description: (§1) The cytotoxicity and antiviral activity of various concentrations of G-NH2 and GPG-NH2 were evaluated in cell cultures that were infected with various types of viruses. Conventional host cell culture, viral infection, and infectivity analysis for each different type of cell and virus were followed. Compounds that were known to inhibit replication of the particular types of viruses analyzed were used as controls.

Reovirus-1 = settings: Vero; reduces virus-induced cytopathogenicity by 50%
[2] = system: Respiratory syncytial virus; settings: HeLa; reduces virus-induced cytopathogenicity by 50%
Parainfluenza-3 virus = settings: Vero; reduces virus-induced cytopathogenicity by 50%
Sindbis virus = settings: Vero; reduces virus-induced cytopathogenicity by 50%
Coxsackie virus B4 [3] = test: Antiviral activity in Vero cell cultures, Coxsackie virus B4; assay type: cell-based; settings: reduces virus-induced cytopathogenicity by 50%
Description: as §1

[4] = system: Vesicular stomatitis virus; settings: HeLa; reduces virus-induced cytopathogenicity by 50%

## Nc1ncnc2c1ncn2C[C@H](O)CO [(S)-DHPA, reference compound]
HeLa cell cultures
  Minimum cytotoxic concentration: >400 µg/mL
Punta Toro virus
  Minimum inhibitory concentration Punta Toro virus: >400 µg/mL
Coxsackie virus B4 [1]
  Minimum inhibitory concentration Coxsackie virus B4: >400 µg/mL
Vero cell cultures
  Minimum cytotoxic concentration: >400 µg/mL
Reovirus-1
  Minimum inhibitory concentration Reovirus-1: 80 µg/mL (≈ 382 µM)
[2]
  Minimum inhibitory concentration Respiratory syncytial virus: >400 µg/mL
Parainfluenza-3 virus
  Minimum inhibitory concentration Parainfluenza-3 virus: 240 µg/mL (≈ 1150 µM)
Sindbis virus
  Minimum inhibitory concentration Sindbis virus: >400 µg/mL
Coxsackie virus B4 [3]
  Minimum inhibitory concentration Coxsackie virus B4: >400 µg/mL
[4]
  Minimum inhibitory concentration Vesicular stomatitis virus: 240 µg/mL (≈ 1150 µM)
